Measured values taken from ChEMBL document CHEMBL4428111, “Antiplasmodial activity of alkyl-substituted 1,2-dioxetanes against Plasmodium falciparum” (Bioorg Med Chem Lett, 2016).
In brackets after ≈: the same amount, converted by molar mass.

Legend:
[1] = system: Plasmodium falciparum; test: Antiplasmodial activity against chloroquine-resistant/mefloquine-sensitive Plasmodium falciparum W2 schizonts infected in human erythrocytes assessed as parasite invasion after 24 hrs by Diff-Quick staining based microscopic analysis (reference value: 15.26 +/- 2.13%); format: functional
[2] = system: Plasmodium falciparum; test: Antiplasmodial activity against chloroquine-resistant/mefloquine-sensitive Plasmodium falciparum W2 schizonts infected in human erythrocytes assessed as inhibition of parasite invasion after 24 hrs by Diff-Quick staining based microscopic analysis; format: functional, organism-based; settings: W2, 24 h
[3] = system: Plasmodium falciparum; test: Antiplasmodial activity against chloroquine-resistant/mefloquine-sensitive Plasmodium falciparum W2 schizonts infected in human erythrocytes assessed as inhibition of parasite invasion at 10^-4 mol/L after 24 hrs by Diff-Quick staining based microscopic analysis relative to control; format: functional; settings: W2, 24 h
[4] = system: Plasmodium falciparum; test: Antiplasmodial activity against chloroquine-resistant/mefloquine-sensitive Plasmodium falciparum W2 schizonts infected in human erythrocytes assessed as inhibition of parasite invasion at 10^-6 mol/L after 24 hrs by Diff-Quick staining based microscopic analysis relative to control; format: functional; settings: W2, 24 h
[5] = system: Plasmodium falciparum; test: Antiplasmodial activity against chloroquine-resistant/mefloquine-sensitive Plasmodium falciparum W2 schizonts infected in human erythrocytes assessed as inhibition of parasite invasion at 10^-7 mol/L after 24 hrs by Diff-Quick staining based microscopic analysis relative to control; format: functional; settings: W2, 24 h
[6] = system: Plasmodium falciparum; test: Antiplasmodial activity against chloroquine-resistant/mefloquine-sensitive Plasmodium falciparum W2 schizonts infected in human erythrocytes assessed as inhibition of parasite invasion at 10^-8 mol/L after 24 hrs by Diff-Quick staining based microscopic analysis relative to control; format: functional; settings: W2, 24 h
[7] = system: Plasmodium falciparum; test: Antiplasmodial activity against chloroquine-resistant/mefloquine-sensitive Plasmodium falciparum W2 schizonts infected in human erythrocytes assessed as inhibition of parasite invasion at 10^-9 mol/L after 24 hrs by Diff-Quick staining based microscopic analysis relative to control; format: functional; settings: W2, 24 h
[8] = system: Plasmodium falciparum; test: Antiplasmodial activity against chloroquine-resistant/mefloquine-sensitive Plasmodium falciparum W2 schizonts infected in human erythrocytes assessed as inhibition of parasite invasion at 10^-10 mol/L after 24 hrs by Diff-Quick staining based microscopic analysis relative to control; format: functional; settings: W2, 24 h
[9] = system: Plasmodium falciparum; test: Antiplasmodial activity against chloroquine-resistant/mefloquine-sensitive Plasmodium falciparum W2 schizonts infected in human erythrocytes assessed as inhibition of parasite invasion at 10^-12 mol/L after 24 hrs by Diff-Quick staining based microscopic analysis relative to control; format: functional; settings: W2, 24 h
[10] = system: Erythrocyte; test: Hemolytic activity against human RBC assessed as reduction in hemoglobin release at 10^-8 M after 24 hrs by spectrophotometric method relative to control; format: ADME, cell-based; design: scale not given: the % may be the effect or the level left; settings: 0.01 µM
[11] = system: Erythrocyte; test: Hemolytic activity against human RBC assessed as reduction in hemoglobin release after 24 hrs by spectrophotometric method; format: ADME, cell-based
[12] = system: Plasmodium falciparum; test: Antiplasmodial activity against chloroquine-resistant/mefloquine-sensitive Plasmodium falciparum W2 schizonts infected in human erythrocytes assessed as inhibition of parasite invasion at 10^-5 mol/L after 24 hrs by Diff-Quick staining based microscopic analysis relative to control; format: functional; settings: W2, 24 h
[13] = system: Plasmodium falciparum; test: Antiplasmodial activity against chloroquine-resistant/mefloquine-sensitive Plasmodium falciparum W2 schizonts infected in human erythrocytes assessed as inhibition of parasite invasion after 24 hrs by Diff-Quick staining based microscopic analysis relative to artemisinin; format: functional
[14] = Therapeutic index, ratio of MHC for human RBC to MIC for chloroquine-resistant/mefloquine-sensitive Plasmodium falciparum W2 schizonts infected in human erythrocytes; format: toxicity, cell-based; settings: read-out: TI
[15] = system: Plasmodium falciparum; test: Antiplasmodial activity against chloroquine-resistant/mefloquine-sensitive Plasmodium falciparum W2 schizonts infected in human erythrocytes assessed as inhibition of parasite invasion at 10^-11 mol/L after 24 hrs by Diff-Quick staining based microscopic analysis relative to control; format: functional; settings: W2, 24 h
[16] = system: Plasmodium falciparum; test: Antiplasmodial activity against chloroquine-resistant/mefloquine-sensitive Plasmodium falciparum W2 schizonts infected in human erythrocytes assessed as inhibition of parasite invasion at 10^-14 mol/L after 24 hrs by Diff-Quick staining based microscopic analysis relative to control; format: functional; settings: W2, 24 h

SMILES	Activity [1] [%]	IC50 [2] [nM]	MIC [2] [nM]	inhibition at 100 µM [3] [%]	inhibition at 1 µM [4] [%]	inhibition at 0.1 µM [5] [%]	inhibition at 0.01 µM [6] [%]	inhibition at 0.001 µM [7] [%]	inhibition at 0.0001 µM [8] [%]	inhibition at 1 pM [9] [%]	Activity [10] [%]	MHC [11]	inhibition at 10 µM [12] [%]	fold change (FC) [13]	selectivity ratio [14]	inhibition at 10 pM [15] [%]	inhibition at 10 fM [16] [%]
C[C@@H]1CC[C@H]2[C@@H](C)C(=O)O[C@@H]3O[C@@]4(C)CC[C@@H]1[C@]32OO4 [ARTEMISININ]	5.58	10 to 20	0.001 (≈ 0.000282 ng/mL)	100	99 to 100	82.2 to 85.4	63.4 to 67.4	52.3 to 54	43.1 to 48.7	38.5 to 40.6	1.5	1 ×10⁻⁴ M					
CC1(C)OOC1(C)C	9.83	45	0.001 (≈ 0.000116 ng/mL)		74.7 to 79.4	60.2 to 60.3	35.6 to 36.3		23.4 to 25.6	16.7 to 17.4	1.4	1 ×10⁻⁵ M	81 to 84	0.45	1e+07		
C1C2CC3CC1CC(C2)C31OOC12C1CC3CC(C1)CC2C3 (configuration not stated)	6.01	0.19			65.6 to 67		64 to 65.8	53.4 to 54.4	36.2 to 38.8	20.5 to 21.2	2	1 ×10⁻⁶ M		105		24.6 to 25.4	16.7 to 18.4
